{"source": "ChEMBL document CHEMBL6121047", "about": "“Design, Synthesis, and Evaluation of Selective PDE4 Inhibitors for the Therapy of Pulmonary Injury” (J Med Chem, 2025)", "key": {"Mus musculus [1]": {"test_system": "Mus musculus", "experiment": "Anti-inflammatory activity against cigarette-smoke/LPS-induced COPD male C57BL/6 mouse model assessed as reduction in bronchiole thickness at 5 mg/kg pretreated with cigarette smoke exposure for 21 weeks with subsequent LPS induction twice on the first and 15th day followed by compound administration every day via gavage for 4 weeks by H and E staining based microscopic analysis", "format": "functional, organism-based"}, "RAW264.7 [2]": {"test_system": "RAW264.7", "experiment": "Anti-inflammatory activity against cigarette-smoke/LPS-induced mouse RAW264.7 cells assessed as inhibition of phosphorylated p38 MAPK protein expression by Western blotting analysis", "format": "functional, cell-based"}, "Mus musculus [3]": {"test_system": "Mus musculus", "experiment": "Anti-inflammatory activity against LPS-induced acute lung injury male BALB/c mouse model assessed as restoration of alveolar cavities in lung at 8 to 32 mg/kg administered once a day via gavage for 7 days followed by LPS stimulation and measured after 24 hrs by H and E staining based microscopic analysis", "format": "functional, organism-based", "details": "dose 8-32 mg/kg, time 192.0 hrs"}, "RAW264.7 [4]": {"test_system": "RAW264.7", "experiment": "Cytotoxicity against mouse RAW264.7 cells assessed as reduction in cell viability incubated for 24 hrs by CCK-8 assay", "format": "toxicity, cell-based", "details": "raw264.7, 24 h"}, "[5]": {"experiment": "Initial plasma concentration in Sprague-Dawley rat at 5 mg/kg, iv measured upto 24 hrs by LC-MS/MS analysis", "format": "ADME, organism-based"}, "Mus musculus [6]": {"test_system": "Mus musculus", "experiment": "Anti-inflammatory activity against LPS-induced acute lung injury male BALB/c mouse model assessed as reduction in TNF-alpha level in BALF at 8 to 32 mg/kg administered once a day via gavage for 7 days followed by LPS stimulation and measured after 24 hrs", "format": "functional, organism-based", "details": "dose 8-32 mg/kg, time 192.0 hrs"}, "[7]": {"experiment": "Cmax in Sprague-Dawley rat at 10 mg/kg, po measured upto 24 hrs by LC-MS/MS analysis", "format": "ADME, organism-based", "details": "in vivo"}, "RAW264.7 [8]": {"test_system": "RAW264.7", "experiment": "Anti-inflammatory activity in LPS-induced mouse RAW264.7 cells assessed as inhibition of IL-1 beta secretion level at 10 uM preincubated with compound for 1 hr followed by LPS addition and measured after 24 hrs by ELISA", "format": "functional, cell-based", "details": "time 25.0 hrs"}, "BEAS-2B": {"test_system": "BEAS-2B", "experiment": "Anti-inflammatory activity in LPS-induced human BEAS-2B cells assessed as inhibition of IL-6 secretion level at 10 uM preincubated with compound for 1 hr followed by LPS addition and measured after 24 hrs by ELISA", "format": "functional, cell-based", "details": "time 25.0 hrs"}, "[9]": {"experiment": "AUC (0 to t) in Sprague-Dawley rat at 10 mg/kg, po measured upto 24 hrs by LC-MS/MS analysis", "format": "ADME, organism-based", "details": "in vivo"}, "[10]": {"experiment": "Acute toxicity in Sprague-Dawley rat assessed as pathological changes in spleen at 1 g/Kg, po administered via gavage by H and E staining based analysis", "format": "organism-based", "details": "in vivo, 1000 mg/kg"}, "Mus musculus [11]": {"test_system": "Mus musculus", "experiment": "Anti-inflammatory activity against LPS-induced acute lung injury male BALB/c mouse model assessed as reduction in IL-1beta level in BALF at 8 to 32 mg/kg administered once a day via gavage for 7 days followed by LPS stimulation and measured after 24 hrs", "format": "functional, organism-based", "details": "dose 8-32 mg/kg, time 192.0 hrs"}, "[12]": {"experiment": "Acute toxicity in Sprague-Dawley rat assessed as pathological changes in kidney at 1 g/Kg, po administered via gavage by H and E staining based analysis", "format": "organism-based", "details": "in vivo, 1000 mg/kg"}, "Mus musculus [13]": {"test_system": "Mus musculus", "experiment": "Antitussive activity in male BALB/c mouse model assessed as reduction in cough frequency at 32 mg/kg administered every day via gavage for 7 days at 1 hrs post last dose and measured within 3 min", "format": "functional, organism-based", "details": "time 169.05 hrs"}, "[14]": {"experiment": "Half life in Sprague-Dawley rat at 10 mg/kg, po measured upto 24 hrs by LC-MS/MS analysis", "format": "ADME, organism-based", "details": "in vivo"}, "[15]": {"biological_target": "3',5'-cyclic-AMP phosphodiesterase 4A (Homo sapiens, UniProt P27815)", "sequence (P27815 whole entry)": "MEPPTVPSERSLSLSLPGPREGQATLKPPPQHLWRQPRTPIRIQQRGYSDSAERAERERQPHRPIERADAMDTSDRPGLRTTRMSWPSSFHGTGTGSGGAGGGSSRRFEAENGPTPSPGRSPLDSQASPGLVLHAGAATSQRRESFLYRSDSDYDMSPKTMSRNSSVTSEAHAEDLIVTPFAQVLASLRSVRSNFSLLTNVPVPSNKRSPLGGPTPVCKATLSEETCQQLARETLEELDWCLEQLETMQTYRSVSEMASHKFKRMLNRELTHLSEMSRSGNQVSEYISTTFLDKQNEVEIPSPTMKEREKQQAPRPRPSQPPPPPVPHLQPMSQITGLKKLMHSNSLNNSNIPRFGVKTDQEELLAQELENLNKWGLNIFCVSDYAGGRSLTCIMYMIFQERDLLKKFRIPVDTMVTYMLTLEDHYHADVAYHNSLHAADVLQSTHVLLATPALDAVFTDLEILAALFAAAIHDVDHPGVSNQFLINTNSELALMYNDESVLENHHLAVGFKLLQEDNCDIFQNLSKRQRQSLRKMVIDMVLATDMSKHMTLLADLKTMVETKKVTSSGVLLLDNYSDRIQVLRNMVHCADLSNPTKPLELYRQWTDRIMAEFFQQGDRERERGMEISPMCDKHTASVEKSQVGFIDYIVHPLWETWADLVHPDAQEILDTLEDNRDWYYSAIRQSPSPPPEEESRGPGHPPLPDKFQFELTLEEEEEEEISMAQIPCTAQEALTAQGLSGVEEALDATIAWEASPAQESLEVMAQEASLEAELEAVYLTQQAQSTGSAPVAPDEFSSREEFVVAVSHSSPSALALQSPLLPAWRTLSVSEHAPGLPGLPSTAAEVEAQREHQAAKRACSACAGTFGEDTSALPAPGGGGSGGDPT", "experiment": "Inhibition of PDE4A (unknown origin) using FAM-cAMP as substrate preincubated with compound for compound for 15 mins followed by substrate addition and measured after 30 mins by Envision multilabel reader analysis"}, "[16]": {"experiment": "Metabolic stability in monkey liver microsomes assessed as half life incubated for 4 hrs in presence of NADPH by LC-MS analysis", "format": "ADME, Macaca mulatta, Microsome", "details": "rhesus monkey"}, "RAW264.7 [17]": {"test_system": "RAW264.7", "experiment": "Anti-inflammatory activity in LPS-induced mouse RAW264.7 cells assessed as inhibition of IL-6 secretion level at 10 uM preincubated with compound for 1 hr followed by LPS addition and measured after 24 hrs by ELISA", "format": "functional, cell-based", "details": "time 25.0 hrs"}, "HepG2": {"test_system": "HepG2", "experiment": "Cytotoxicity against human HepG2 cells assessed as reduction in cell viability incubated for 24 hrs by CCK-8 assay", "format": "toxicity, cell-based", "details": "hepg2, 24 h"}, "[18]": {"experiment": "Acute toxicity in Sprague-Dawley rat assessed as effect on apparent heart coefficient change at 1 g/Kg, po administered via gavage", "format": "organism-based", "details": "in vivo, 1000 mg/kg"}, "Mus musculus [19]": {"test_system": "Mus musculus", "experiment": "Anti-inflammatory activity against cigarette-smoke/LPS-induced COPD male C57BL/6 mouse model assessed as decrease in collagen formation at 5 mg/kg pretreated with cigarette smoke exposure for 21 weeks with subsequent LPS induction twice on the first and 15th day followed by compound administration every day via gavage for 4 weeks by masson staining based microscopic analysis", "format": "functional, organism-based"}, "[20]": {"experiment": "Acute toxicity in Sprague-Dawley rat assessed as increase in body weight at 1 g/Kg, po administered via gavage and measured on day 14", "format": "organism-based", "details": "in vivo, 1000 mg/kg"}, "[21]": {"experiment": "Apparent volume of distribution in Sprague-Dawley rat at 5 mg/kg, iv measured upto 24 hrs by LC-MS/MS analysis", "format": "ADME, organism-based", "details": "in vivo, read-out: Vz"}, "Mus musculus [22]": {"test_system": "Mus musculus", "experiment": "Anti-inflammatory activity against cigarette-smoke/LPS-induced COPD male C57BL/6 mouse model assessed as reduction in MMP9 level in BALF at 5 mg/kg pretreated with cigarette smoke exposure for 21 weeks with subsequent LPS induction twice on the first and 15th day followed by compound administration every day via gavage for 4 weeks", "format": "functional, organism-based"}, "[23]": {"experiment": "Clearance in Sprague-Dawley rat at 5 mg/kg, iv measured upto 24 hrs by LC-MS/MS analysis", "format": "ADME, organism-based", "details": "in vivo"}, "RAW264.7 [24]": {"test_system": "RAW264.7", "experiment": "cells", "details": "Mus musculus"}, "Mus musculus [25]": {"test_system": "Mus musculus", "experiment": "Enhancement of sputum secretion in male BALB/c mouse model assessed as increase in phenol red secretion in BALF at 4 to 32 mg/kg administered every day via gavage for 7 days followed by phenol red administration at 1 hrs post last dose and measured after 30 mins", "format": "functional, organism-based", "details": "dose 4-32 mg/kg, time 169.5 hrs"}, "Mus musculus [26]": {"test_system": "Mus musculus", "experiment": "Anti-inflammatory activity against LPS-induced acute lung injury male BALB/c mouse model assessed as restoration of alveolar septa in lung at 8 to 32 mg/kg administered once a day via gavage for 7 days followed by LPS stimulation and measured after 24 hrs by H and E staining based analysis", "format": "functional, organism-based", "details": "dose 8-32 mg/kg, time 192.0 hrs"}}, "note": "Calls of active or inactive are those of the source. No cut-off for these calls is given here."}
{"smiles": "O=C(Nc1nccs1)c1cccc2[nH]c(-c3ccc(OC(F)F)c(OCC4CC4)c3)nc12", "values": [{"measurement": "Activity", "setting": "Mus musculus [1]", "value": "Active"}, {"measurement": "Activity", "setting": "RAW264.7 [2]", "value": "Active"}, {"measurement": "Activity", "setting": "Mus musculus [3]", "value": "Active"}, {"measurement": "Activity", "setting": "RAW264.7 [4]", "value": "Non-toxic"}, {"measurement": "C0 at 24 h", "setting": "[5]", "value": 38100, "unit": "ng/mL"}, {"measurement": "Activity", "setting": "Mus musculus [6]", "value": "Active"}, {"measurement": "Cmax", "setting": "[7]", "value": 219, "unit": "ng/mL"}, {"measurement": "Activity", "setting": "RAW264.7 [8]", "value": "Active"}, {"measurement": "Activity", "setting": "BEAS-2B", "value": "Active"}, {"measurement": "AUC(0-t) at 24 h", "setting": "[9]", "value": 2130, "unit": "ng·h/mL"}, {"measurement": "Activity", "setting": "[10]", "value": "Non-toxic"}, {"measurement": "Activity", "setting": "Mus musculus [11]", "value": "Active"}, {"measurement": "Activity", "setting": "[12]", "value": "Non-toxic"}, {"measurement": "Activity", "setting": "Mus musculus [13]", "value": "Active"}, {"measurement": "half-life", "setting": "[14]", "value": 3.75, "unit": "h"}, {"measurement": "IC50", "setting": "[15]", "value": 0.0897, "unit": "µM"}, {"measurement": "half-life", "setting": "[16]", "value": 0.737, "unit": "h"}, {"measurement": "Activity", "setting": "RAW264.7 [17]", "value": "Active"}, {"measurement": "Activity", "setting": "HepG2", "value": "Non-toxic"}, {"measurement": "Activity", "setting": "[18]", "value": "Non-toxic"}, {"measurement": "Activity", "setting": "Mus musculus [19]", "value": "Active"}, {"measurement": "Activity", "setting": "[20]", "value": "Non-toxic"}, {"measurement": "Vd", "setting": "[21]", "value": 0.606, "unit": "L/kg"}, {"measurement": "Activity", "setting": "Mus musculus [22]", "value": "Active"}, {"measurement": "clearance", "setting": "[23]", "value": 3.62, "unit": "mL/min/kg"}, {"measurement": "IC50", "setting": "RAW264.7 [24]", "value": 30.1, "unit": "µM"}, {"measurement": "Activity", "setting": "Mus musculus [25]", "value": "Active"}, {"measurement": "Activity", "setting": "Mus musculus [26]", "value": "Active"}]}
